Laboratory results taken from PubChem BioAssay (NCI).
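Tested at 5 concentrations; 48 h exposure; 96-well plates; endpoints linearly interpolated, else capped at highest concentration. GI50 is the concentration that inhibits growth by half. TGI is the concentration that stops growth completely.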

Tests used:
Experiment in all cases: DTP human tumour cell line panel, 48 h
786-0 renal = tested on: 786-0 renal
A549 NSCLC = tested on: A549 NSCLC
ACHN renal = tested on: ACHN renal
BT-549 breast = tested on: BT-549 breast
CAKI-1 renal = tested on: CAKI-1 renal
CCRF-CEM leukemia = tested on: CCRF-CEM leukemia
COLO 205 colon = tested on: COLO 205 colon
DU-145 prostate = tested on: DU-145 prostate
HCC-2998 colon = tested on: HCC-2998 colon
HCT-116 colon = tested on: HCT-116 colon
HCT-15 colon = tested on: HCT-15 colon
HL-60(TB) leukemia = tested on: HL-60(TB) leukemia
HOP-62 NSCLC = tested on: HOP-62 NSCLC
HOP-92 NSCLC = tested on: HOP-92 NSCLC
HS 578T breast = tested on: HS 578T breast
HT29 colon = tested on: HT29 colon
IGROV1 ovarian = tested on: IGROV1 ovarian
K-562 leukemia = tested on: K-562 leukemia
KM12 colon = tested on: KM12 colon
LOX IMVI melanoma = tested on: LOX IMVI melanoma
MALME-3M melanoma = tested on: MALME-3M melanoma
MCF7 breast = tested on: MCF7 breast
MDA-MB-231 breast = tested on: MDA-MB-231 breast
MDA-MB-435 = tested on: MDA-MB-435
MOLT-4 leukemia = tested on: MOLT-4 leukemia
NCI-H226 lung = tested on: NCI-H226 lung
NCI-H23 lung = tested on: NCI-H23 lung

O=C1c2ccccc2-c2nnc(-c3ccc(Br)cc3)cc21
GI50 (786-0 renal): > 100 µM
TGI (786-0 renal): > 100 µM
GI50 (A549 NSCLC): > 100 µM
TGI (A549 NSCLC): > 100 µM
GI50 (ACHN renal): > 100 µM
TGI (ACHN renal): > 100 µM
GI50 (BT-549 breast): > 100 µM
TGI (BT-549 breast): > 100 µM
GI50 (CAKI-1 renal): > 100 µM
TGI (CAKI-1 renal): > 100 µM
GI50 (CCRF-CEM leukemia): > 100 µM
TGI (CCRF-CEM leukemia): > 100 µM
GI50 (COLO 205 colon): > 100 µM
TGI (COLO 205 colon): > 100 µM
GI50 (DU-145 prostate): > 100 µM
TGI (DU-145 prostate): > 100 µM
GI50 (HCC-2998 colon): > 100 µM
TGI (HCC-2998 colon): > 100 µM
GI50 (HCT-116 colon): > 100 µM
TGI (HCT-116 colon): > 100 µM
GI50 (HCT-15 colon): > 100 µM
TGI (HCT-15 colon): > 100 µM
GI50 (HL-60(TB) leukemia): > 100 µM
TGI (HL-60(TB) leukemia): > 100 µM
GI50 (HOP-62 NSCLC): > 100 µM
TGI (HOP-62 NSCLC): > 100 µM
GI50 (HOP-92 NSCLC): > 100 µM
TGI (HOP-92 NSCLC): > 100 µM
GI50 (HS 578T breast): > 100 µM
TGI (HS 578T breast): > 100 µM
GI50 (HT29 colon): > 100 µM
TGI (HT29 colon): > 100 µM
GI50 (IGROV1 ovarian): > 100 µM
TGI (IGROV1 ovarian): > 100 µM
GI50 (K-562 leukemia): > 100 µM
TGI (K-562 leukemia): > 100 µM
GI50 (KM12 colon): > 100 µM
TGI (KM12 colon): > 100 µM
GI50 (LOX IMVI melanoma): > 100 µM
TGI (LOX IMVI melanoma): > 100 µM
GI50 (MALME-3M melanoma): > 100 µM
TGI (MALME-3M melanoma): > 100 µM
GI50 (MCF7 breast): > 100 µM
TGI (MCF7 breast): > 100 µM
GI50 (MDA-MB-231 breast): > 100 µM
TGI (MDA-MB-231 breast): > 100 µM
GI50 (MDA-MB-435): > 100 µM
TGI (MDA-MB-435): > 100 µM
GI50 (MOLT-4 leukemia): > 100 µM
TGI (MOLT-4 leukemia): > 100 µM
GI50 (NCI-H226 lung): > 100 µM
TGI (NCI-H226 lung): > 100 µM
GI50 (NCI-H23 lung): > 100 µM
TGI (NCI-H23 lung): > 100 µM
